Measurements taken from patent publication US5618943A, “Acetylenes disubstituted with a 5 OXO substituted tetrahydronaphthyl group and with an aryl or heteroaryl group having retinoid-like biological activity” (Allergan, priority 1994, dated 1997).

Test system: ornithine decarboxylase (ODC)
Assay: ODC assay: inhibition of TPA induction of ornithine decarboxylase (retinoic acid-like activity)
Format: biochemical
Settings: concentration of the test compound which causes 80% inhibition in the ODC assay; TPA-induced
Description: The retinoic acid-like activity of these compounds is confirmed through the classic measure of retinoic acid activity involving the effects of retinoic acid on ornithine decarboxylase. The original work on the correlation between retinoic acid and decrease in cell proliferation was done by Verma & Boutwell, Cancer Research, 1977, 37,2196-2201. That reference discloses that ornithine decarboxylase (ODC) activity increased precedent to polyamine biosynthesis. It has been established elsewhere that increases in polyamine synthesis can be correlated or associated with cellular proliferation. Thus, if ODC activity could be inhibited, cell hyperproliferation could be modulated. Although all cases for ODC activity increases are unknown, it is known that 12-0-tetradecanoylphorbol-13-acetate (TPA) induces ODC activity. […] Activity of exemplary compounds of the present invention in the abovedescribed ODC assay is disclosed in Table 2 which provides the IC80 concentration for the respective exemplary compound. ("IC80 " is that concentration of the test compound which causes 80% inhibition in the ODC assay. By analogy, "IC60, for example, is that concentration of the test compound which causes 60% inhibition in the ODC assay.)

IC80 conc | SMILES
0.85 nmols | CCOC(=O)c1ccc(C#Cc2ccc3c(c2)C(=O)CCC3(C)C)cc1 [Compound 2, Ethyl 4-[(5,6,7,8-tetrahydro-8,8-dimethyl-5-oxonaphth-3-yl)ethynyl]benzoate]
26.12 nmols | CCOC(=O)c1ccc(C#Cc2ccc3c(c2)C2(CCC3(C)C)SCCCS2)cc1 [Compound 58, Ethyl. 4-[[5,6,7,8-tetrahydro-8,8-dimethyl-5-(2-(1,3-dithiane))naphth-3-yl]ethynyl]benzoate]
23.00 nmols | CCOC(=O)c1ccc(C#Cc2ccc3c(c2)C(C)(C)CCC32SCCCS2)cc1 [Compound 59, Ethyl 4-[[5,6,7,8-tetrahydro-8,8-dimethyl-5-(2-(1,3-dithiane))napth-2-yl]ethynyl]benzoate]
2.60 nmols | CC1(C)CCC2(SCCCS2)c2cc(C#Cc3ccc(C(=O)O)cc3)ccc21 [Compound 60, 4-[[5,6,7,8-tetrahydro-8,8-dimethyl-5-(2-(1,3-dithiane))naphth-3-yl]ethynyl]benzoic acid]

The remaining lines, values behind:

SMILES | IC80 conc
CCOC(=O)c1ccc(C#Cc2ccc3c(c2)C(C)(C)CCC3=O)cc1 [Compound 1, Ethyl 4-[(5,6,7,8-tetrahydro-8,8-dimethyl-5-oxonaphth-2-yl)ethynyl]benzoate] | 1.60 nmols
CCOC(=O)c1ccc(C#Cc2ccc3c(c2)C(C)(C)CCC3=O)nc1 [Compound 5, Ethyl 6-[(5,6,7,8-tetrahydro-8,8-dimethyl-5-oxonaphth-2-yl)ethynyl]nicotinate] | 113 nmols
CC1(C)CCC(=O)c2ccc(C#Cc3ccc(C(=O)O)cc3)cc21 [Compound 7, 4-[(5,6,7,8-tetrahydro-8,8-dimethyl-5-oxonaphth-2-yl)ethynyl]benzoic acid] | 1.60 nmols
CC1(C)CCC(=O)c2cc(C#Cc3ccc(C(=O)O)cc3)ccc21 [Compound 8, 4-[(5,6,7,8-tetrahydro-8,8-dimethyl-5-oxonaphth-3yl)ethynyl]benzoic acid] | 1.37 nmols

Test system: ornithine decarboxylase (ODC)
Assay: not given
Settings: literature statement; cited from earlier work

SMILES | inhibition of TPA induction of ODC activity (in words)
CC1=C(/C=C/C(C)=C/C=C/C(C)=C/C(=O)O)C(C)(C)CCC1 [Retinoic acid] | inhibits this induction of ODC activity
